Measurements from paper PMC9120017, “Inhibition mechanism of the chloride channel TMEM16A by the pore blocker 1PBC” (Nature Communications, 2022).
pIC50: −log10 of the molar value. Where two headings read alike, the source gives them in different places.

Target: T1, mouse TMEM16A mutant P595A (Mus musculus, UniProt Q8BHY3, P595A)
T1 construct: expressed in transfected cells; host or cells: HEK293T
T1 sequence (Q8BHY3 1-960 P595A): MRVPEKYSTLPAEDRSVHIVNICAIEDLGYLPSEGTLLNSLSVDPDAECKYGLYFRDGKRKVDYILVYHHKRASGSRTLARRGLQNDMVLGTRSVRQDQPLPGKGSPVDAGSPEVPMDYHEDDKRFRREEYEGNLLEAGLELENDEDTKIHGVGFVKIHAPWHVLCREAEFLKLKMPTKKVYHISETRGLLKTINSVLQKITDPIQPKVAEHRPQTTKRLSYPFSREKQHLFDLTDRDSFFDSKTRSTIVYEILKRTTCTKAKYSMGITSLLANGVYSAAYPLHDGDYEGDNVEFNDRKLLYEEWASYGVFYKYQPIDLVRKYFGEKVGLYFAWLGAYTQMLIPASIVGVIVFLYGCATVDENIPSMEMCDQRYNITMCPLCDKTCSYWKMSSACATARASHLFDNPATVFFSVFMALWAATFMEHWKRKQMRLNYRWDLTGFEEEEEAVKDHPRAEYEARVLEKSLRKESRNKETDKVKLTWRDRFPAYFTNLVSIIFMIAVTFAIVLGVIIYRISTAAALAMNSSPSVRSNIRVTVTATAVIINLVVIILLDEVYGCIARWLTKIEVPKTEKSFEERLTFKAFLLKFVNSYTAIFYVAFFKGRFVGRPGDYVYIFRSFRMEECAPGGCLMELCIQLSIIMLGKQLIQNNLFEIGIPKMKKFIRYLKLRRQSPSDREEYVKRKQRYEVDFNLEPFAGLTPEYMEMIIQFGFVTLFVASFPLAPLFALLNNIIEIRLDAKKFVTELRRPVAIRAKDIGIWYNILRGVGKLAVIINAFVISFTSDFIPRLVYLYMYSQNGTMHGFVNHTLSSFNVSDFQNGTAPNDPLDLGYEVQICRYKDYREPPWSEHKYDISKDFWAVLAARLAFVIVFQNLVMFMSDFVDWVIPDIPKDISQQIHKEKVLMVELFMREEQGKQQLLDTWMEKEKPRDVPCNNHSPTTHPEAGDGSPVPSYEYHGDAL
Assay: Inside-out patch recording of 1PBC block, mutant P595A
Format: cell-based
Settings: for remaining activity at 1 µM: 1PBC conc 1; for remaining activity at 1 µM / remaining activity at 3 µM / remaining activity at 10 µM / remaining activity at 30 µM: read-out: relative current in 1PBC (avr); for remaining activity at 3 µM: 1PBC conc 3; for remaining activity at 10 µM: 1PBC conc 10; for remaining activity at 30 µM: 1PBC conc 30
Procedure: HEK293T cells (ATCC CRL-1573) were maintained in Dulbecco’s modified Eagle’s medium (DMEM; Sigma-Aldrich) supplemented with 10 U ml^−1 penicillin, 0.1 mg ml^−1 streptomycin (Sigma-Aldrich), 2 mM L-glutamine (Sigma-Aldrich), and 10% FBS (Sigma-Aldrich) in a humidified atmosphere containing 5% CO2 at 37 °C. HEK293S GnTI^− cells (ATCC CRL-3022) were maintained in HyClone HyCell TransFx-H medium (GE Healthcare) supplemented with 10 U ml^−1 penicillin, 0.1 mg ml^−1 streptomycin, 4 mM L-glutamine, 0.15% poloxamer 188 (Sigma-Aldrich), and 1% FBS in an atmosphere containing 5% CO2 at 185 rpm at 37 °C. The ac splice variant of mouse TMEM16A (UniProt ID: Q8BHY3), mouse TMEM16B (UniProt ID: Q8CFW1), or mouse TMEM16F (UniProt ID: Q6P9J9) bearing a 3C cleavage site, a Venus YFP, a Myc tag, and a Streptavidin-binding peptide (SBP) downstream of the open reading frame in a modified pcDNA3.1 vector (Invitrogen) were used as described previously[21],[31]. Mutations were introduced using a modified QuikChange method[58] and were verified by sequencing.
HEK293T cells were transfected with 3–4 μg DNA per 6 cm Petri dish using the calcium phosphate co-precipitation method and were used within 24–96 h after transfection. Recordings were performed on inside-out patches excised from HEK293T cells expressing the construct of interest. Patch pipettes were pulled from borosilicate glass capillaries (O.D. 1.5 mm, I.D. 0.86 mm, Sutter Instrument) and were fire-polished with a microforge (Narishige) before use. Pipette resistance was typically 3–8 MΩ when filled with the recording solutions detailed below. Seal resistance was typically 4 GΩ or higher. Voltage-clamp recordings were made using Axopatch 200B, Digidata 1550, and Clampex 10.7 (Molecular Devices). Analog signals were filtered with the in-built 4-pole Bessel filter at 10 kHz and were digitized at 20 kHz. Solution exchange was achieved using a gravity-fed system through a theta glass pipette mounted on an ultra-fast piezo-driven stepper (Siskiyou). […] All recordings were performed at 20 °C.
A symmetrical ionic condition was used throughout. Stock solution with Ca^2+-EGTA contained 150 mM NaCl, 5.99 mM Ca(OH)2, 5 mM EGTA, and 10 mM HEPES at pH 7.40. Stock solution with EGTA contained 150 mM NaCl, 5 mM EGTA, and 10 mM HEPES at pH 7.40. Free Ca^2+ concentrations were adjusted by mixing the stock solutions at the required ratios calculated using the WEBMAXC program (http://web.stanford.edu/~cpatton/webmaxcS.htm). Patch pipettes were filled with the stock solution with Ca^2+-EGTA, which has a free Ca^2+ concentration of 1 mM. 1PBC (ChemBridge) stock was reconstituted in anhydrous DMSO (Sigma-Aldrich) at 100 mM and stored at −20 °C. Working solutions with 1PBC were prepared by serial dilution. Unless otherwise stated, experiments were performed at a saturating Ca^2+ concentration as shown in Supplementary Table 1 and the primary data were corrected for current rundown as described previously[21],[25].
Concentration-response relations, obtained from the ratio of the I-V plots before and after the application of the blocker, were fitted to the Hill equation,1 I/Imax=1/1+IC50/[blocker]^h where I/Imax is the normalized current responses, IC50 defines the concentration at which inhibition is at its half-maximum, and h is the Hill coefficient.

Compound: N#Cc1c(C(F)(F)F)cc(O)n2c1nc1ccccc12 [1PBC]
- pIC50 (0 mV, 2 µM Ca2+): 5.51
- remaining activity at 1 µM (0 mV): 75.3%
- remaining activity at 3 µM (0 mV): 48.8%
- remaining activity at 10 µM (0 mV): 25.9%
- remaining activity at 30 µM (0 mV): 11.1%
- pIC50 (20 mV, 2 µM Ca2+): 5.61
- remaining activity at 1 µM (20 mV): 70.9%
- remaining activity at 3 µM (20 mV): 43%
- remaining activity at 10 µM (20 mV): 22.6%
- remaining activity at 30 µM (20 mV): 8.98%
- pIC50 (40 mV, 2 µM Ca2+): 5.70
- remaining activity at 1 µM (40 mV): 66.5%
- remaining activity at 3 µM (40 mV): 38.4%
- remaining activity at 10 µM (40 mV): 19%
- remaining activity at 30 µM (40 mV): 7.73%
- pIC50 (60 mV, 2 µM Ca2+): 5.76
- remaining activity at 1 µM (60 mV): 64.4%
- remaining activity at 3 µM (60 mV): 34.6%
- remaining activity at 10 µM (60 mV): 16.9%
- remaining activity at 30 µM (60 mV): 7.56%
- pIC50 (80 mV, 2 µM Ca2+): 5.80
- remaining activity at 1 µM (80 mV): 61.3%
- remaining activity at 3 µM (80 mV): 32.5%
- remaining activity at 10 µM (80 mV): 15.9%
- remaining activity at 30 µM (80 mV): 7.06%
- pIC50 (100 mV, 2 µM Ca2+): 5.83
- remaining activity at 1 µM (100 mV): 60.2%
- remaining activity at 3 µM (100 mV): 31%
- remaining activity at 10 µM (100 mV): 15.3%
- remaining activity at 30 µM (100 mV): 6.31%
- pIC50 (120 mV, 2 µM Ca2+): 5.79
- remaining activity at 1 µM (120 mV): 64.3%
- remaining activity at 3 µM (120 mV): 31.5%
- remaining activity at 10 µM (120 mV): 15.7%
- remaining activity at 30 µM (120 mV): 6.66%
- pIC50 (140 mV, 2 µM Ca2+): 5.72
- remaining activity at 1 µM (140 mV): 70.3%
- remaining activity at 3 µM (140 mV): 33.2%
- remaining activity at 10 µM (140 mV): 17.5%
- remaining activity at 30 µM (140 mV): 7.54%
- pIC50 (-20 mV, 2 µM Ca2+): 5.41
- remaining activity at 1 µM (-20 mV): 79.6%
- remaining activity at 3 µM (-20 mV): 54.6%
- remaining activity at 10 µM (-20 mV): 29.2%
- remaining activity at 30 µM (-20 mV): 13.3%
- pIC50 (-40 mV, 2 µM Ca2+): 5.31
- remaining activity at 1 µM (-40 mV): 84%
- remaining activity at 3 µM (-40 mV): 59.7%
- remaining activity at 10 µM (-40 mV): 33.9%
- remaining activity at 30 µM (-40 mV): 15.9%
- pIC50 (-60 mV, 2 µM Ca2+): 5.23
- remaining activity at 1 µM (-60 mV): 87.1%
- remaining activity at 3 µM (-60 mV): 62.7%
- remaining activity at 10 µM (-60 mV): 37.7%
- remaining activity at 30 µM (-60 mV): 18.7%
- pIC50 (-80 mV, 2 µM Ca2+): 5.15
- remaining activity at 1 µM (-80 mV): 88.8%
- remaining activity at 3 µM (-80 mV): 67.8%
- remaining activity at 10 µM (-80 mV): 41.3%
- remaining activity at 30 µM (-80 mV): 21%
- pIC50 (-100 mV, 2 µM Ca2+): 5.09
- remaining activity at 1 µM (-100 mV): 90.4%
- remaining activity at 3 µM (-100 mV): 70.3%
- remaining activity at 10 µM (-100 mV): 45%
- remaining activity at 30 µM (-100 mV): 24%
- pIC50 (-120 mV, 2 µM Ca2+): 5.03
- remaining activity at 1 µM (-120 mV): 92.2%
- remaining activity at 3 µM (-120 mV): 72.9%
- remaining activity at 10 µM (-120 mV): 47.9%
- remaining activity at 30 µM (-120 mV): 26.1%
- pIC50 (-140 mV, 2 µM Ca2+): 4.98
- remaining activity at 1 µM (-140 mV): 93.8%
- remaining activity at 3 µM (-140 mV): 75.4%
- remaining activity at 10 µM (-140 mV): 50.3%
- remaining activity at 30 µM (-140 mV): 28.4%
- pIC50 (P595A, V 0 mV): 5.51
- pIC50 (P595A, V 20 mV): 5.61
- pIC50 (P595A, V 40 mV): 5.70
- pIC50 (P595A, V 60 mV): 5.76
- pIC50 (P595A, V 80 mV): 5.80
- pIC50 (P595A, V 100 mV): 5.83
- pIC50 (P595A, V 120 mV): 5.79
- pIC50 (P595A, V 140 mV): 5.72
- pIC50 (P595A, V -20 mV): 5.41
- pIC50 (P595A, V -40 mV): 5.31
- pIC50 (P595A, V -60 mV): 5.23
- pIC50 (P595A, V -80 mV): 5.15
- pIC50 (P595A, V -100 mV): 5.09
- pIC50 (P595A, V -120 mV): 5.03
- pIC50 (P595A, V -140 mV): 4.98
